PMC8143647, “Proteomics of Galápagos Marine Iguanas Links Function of Femoral Gland Proteins to the Immune System” (Molecular & Cellular Proteomics : MCP, 2020)

tested on: Bacillus subtilis; test: Antimicrobial activity, relative growth inhibition in broth microdilution (Gram-pos.); assay type: cell-based; design: key to Activity against Gram-pos.: ++: highly active (comparable to oncocin); +: moderately active; +/-: moderately active without clear dose dependency; -: no activity; details: B. subtilis cultures, high concentrations required, vs control without test substance, OD 600 nm
Protocol: (§1) Test strains of Bacillus subtilis, Escherichia coli K12 or Escherichia coli BL21 were grown in Miller-Hinton broth (MHB) for 18–20 h at 37 °C with moderate shaking. An inoculum of 1–2 × 10^7 cfu/ml was prepared in fresh MHB and 100 µl of the suspension was pipetted into microtiter plate wells together with 20 µl test substance. Test substances were measured in duplicates. The plates were covered by a plastic seal to prevent evaporation and incubated for further 18–24 h at 37 °C with moderate shaking. The test substances were dissolved in water at a concentration of 1 mg/ml and a 2n dilution series down to 31 µg/ml was prepared in sterile PBS. After incubation, the bacterial growth was estimated with a Photometer at 600 nm and the relative growth inhibition was calculated compared with a control without test substance. As positive control the well-studied AMP oncocin was used.
(§2) We were intrigued by these antimicrobial signatures and sought to systematically analyze the proteome of femoral glands. To this end, we utilized the marine iguana protein database of all detected proteins, and generated a library of potential antimicrobial peptides (AMP) by in-silico sliding window digestion. Here, we generated sequence windows of 8 to 15 amino acids and resulting peptides were predicted for antimicrobial activity by a trained support vector machine (as described in the methods) (Fig. 5). […] To experimentally test the antimicrobial properties of these peptides, we determined growth rate reductions of bacterial cultures in the presence of increasing candidate peptide concentration. As positive control, we used the well-established AMP oncocin ([40]). As negative control, we have picked four peptides predicted to have no AMP activity.

| Substance | dose dependent maximal growth reduction |
| --- | --- |
| KKLYISKGCMSKSLC [Iguana-04, predicted antimicrobial peptide from marine iguana proteome, …] | ~95% |

same assay, conditions: Bacillus subtilis in Miller-Hinton broth, inoculum 1-2 x 10^7 cfu/ml, 100 µl + 20 µl test substance, 2n dilution series from 1 mg/ml down to 31 µg/ml, 18-24 h 37 °C, photometer 600 nm, duplicates

| Substance | Activity against Gram-pos. |
| --- | --- |
| AGVPRFRFGPPE [Iguana-10, predicted antimicrobial peptide from marine iguana proteome, …] | +/- |
| GGRRGSI [Iguana-02, predicted antimicrobial peptide from marine iguana proteome, GGRRGSI] | +/- |
| IADPDQFVLKPQ [Iguana-15, predicted antimicrobial peptide from marine iguana proteome, …] | +/- |
| IFELDGALYR [Iguana-non-04] | - |
| KKLYISKGCMSKSLC [Iguana-04, predicted antimicrobial peptide from marine iguana proteome, …] | ++ |
| KKPLITMDEIP [Iguana-11, predicted antimicrobial peptide from marine iguana proteome, …] | ++ |
| LKVPELNV [Iguana-non-02] | - |
| LPTKLDSAFIRKDPFG [Iguana-14, predicted antimicrobial peptide from marine iguana proteome, …] | +/- |
| LSRPGVLERFLPDKP [Iguana-16, predicted antimicrobial peptide from marine iguana proteome, …] | + |
| MPKFHMPKF [Iguana-17, predicted antimicrobial peptide from marine iguana proteome, …] | ++ |
| NLVSVDERLV [Iguana-non-03] | - |
| RGSIGGGRRGSI [Iguana-03, predicted antimicrobial peptide from marine iguana proteome, …] | +/- |
| RLTPFVEPRY [Iguana-12, predicted antimicrobial peptide from marine iguana proteome, …] | +/- |
| SALWVVER [Iguana-non-01] | - |
| SYFVKRPPGV [Iguana-13, predicted antimicrobial peptide from marine iguana proteome, …] | +/- |
| VDKPPYLPRPRPPRRIYNR-NH2 [Oncocin, well-studied AMP used as positive control, …-NH2, reference compound] | ++ |
| YKFYKA [Iguana-01, predicted antimicrobial peptide from marine iguana proteome, YKFYKA] | + |

tested on: Escherichia coli K12 or Escherichia coli BL21; test: Antimicrobial activity, relative growth inhibition in broth microdilution (Gram-neg.); assay type: cell-based; design: key to Activity against Gram-neg.: ++: highly active (comparable to oncocin); +: moderately active; +/-: moderately active without clear dose dependency; -: no activity; antimicrobial activity compared with oncocin: dose or concentration left out as unconfirmed; details: E. coli cultures, low concentrations between 3 and 60
Protocol: as §1, §2

| Substance | antimicrobial activity compared with oncocin |
| --- | --- |
| KKLYISKGCMSKSLC [Iguana-04, predicted antimicrobial peptide from marine iguana proteome, …] | exceeded even the oncocin activity |

same assay, conditions: E. coli cultures, vs control without test substance, OD 600 nm

| Substance | dose dependent maximal growth reduction |
| --- | --- |
| KKLYISKGCMSKSLC [Iguana-04, predicted antimicrobial peptide from marine iguana proteome, …] | approx. 75% |

same assay, conditions: Escherichia coli in Miller-Hinton broth, inoculum 1-2 x 10^7 cfu/ml, 100 µl + 20 µl test substance, 2n dilution series from 1 mg/ml down to 31 µg/ml, 18-24 h 37 °C, photometer 600 nm, duplicates

| Substance | Activity against Gram-neg. |
| --- | --- |
| AGVPRFRFGPPE [Iguana-10, predicted antimicrobial peptide from marine iguana proteome, …] | ++ |
| GGRRGSI [Iguana-02, predicted antimicrobial peptide from marine iguana proteome, GGRRGSI] | +/- |
| GSFPKEAIVQK [Iguana-07, predicted antimicrobial peptide from marine iguana proteome, …] | +/- |
| IADPDQFVLKPQ [Iguana-15, predicted antimicrobial peptide from marine iguana proteome, …] | + |
| IFELDGALYR [Iguana-non-04] | - |
| IIPNEDFS [Iguana-05, predicted antimicrobial peptide from marine iguana proteome, IIPNEDFS] | - |
| KKLYISKGCMSKSLC [Iguana-04, predicted antimicrobial peptide from marine iguana proteome, …] | ++ |
| KKPLITMDEIP [Iguana-11, predicted antimicrobial peptide from marine iguana proteome, …] | + |
| LKVPELNV [Iguana-non-02] | - |
| LPTKLDSAFIRKDPFG [Iguana-14, predicted antimicrobial peptide from marine iguana proteome, …] | + |
| LSLSRISIP [Iguana-06, predicted antimicrobial peptide from marine iguana proteome, …] | +/- |
| LSRPGVLERFLPDKP [Iguana-16, predicted antimicrobial peptide from marine iguana proteome, …] | + |
| MPKFHMPKF [Iguana-17, predicted antimicrobial peptide from marine iguana proteome, …] | ++ |
| NLVSVDERLV [Iguana-non-03] | - |
| RGQYG [Iguana-09, predicted antimicrobial peptide from marine iguana proteome, RGQYG] | + |
| RGSIGGGRRGSI [Iguana-03, predicted antimicrobial peptide from marine iguana proteome, …] | - |
| RLTPFVEPRY [Iguana-12, predicted antimicrobial peptide from marine iguana proteome, …] | + |
| SALWVVER [Iguana-non-01] | - |
| SYFVKRPPGV [Iguana-13, predicted antimicrobial peptide from marine iguana proteome, …] | +/- |
| VDKPPYLPRPRPPRRIYNR-NH2 [Oncocin, well-studied AMP used as positive control, …-NH2, reference compound] | ++ |
| VDPQKV [Iguana-08, predicted antimicrobial peptide from marine iguana proteome, VDPQKV] | + |
| YKFYKA [Iguana-01, predicted antimicrobial peptide from marine iguana proteome, YKFYKA] | + |
